Experimental data taken from US20250042848A1, “DEUTERATED FUNCTIONALIZED DERIVATIVES OF alpha-ALANINE, IN [sequence] FOR THE TREATMENT OF NEUROLOGICAL DISEASES” (UNIWERSYTET JAGIELLONSKI, priority 2021, published 2025).
Read-outs that look alike come from different tables or passages of the source.

Assays:
[1] = tested on: maximal electroshock seizures in mice; assay: Maximal electroshock seizure test (MES); assay type: in vivo
Procedure: (§1) Initial screening was performed on groups of 4 mice. The mean effective dose (ED50) in a given test and the neurotoxic dose in the rotarod test (TD50) were estimated on the basis of the results obtained on 3-4 groups of animals consisting of 6 animals.
In the maximal electroshock seizure test (MES), the seizures were induced by 500 V, 25 mA electrical stimulus of 0.2 s in duration. The electrical pulse was generated using an electric shock generator (Rodent shocker, Type 221, Hugo Sachs Elektronik, Germany) and delivered to the animal using electrodes placed on the auricles. The study was conducted 30 minutes/2 hours after intraperitoneal administration of the compounds at various doses. During the experiment, the number of animals that experienced a seizure episode in the form of hindlimb tonic extension was counted (Łuszczki, J.J. et al. Fundam. Clin. Pharmacol. 2008, 22, 69-74).
(§2) The ED50 (effective dose) and TD50 (toxic dose) values along with the corresponding 95% confidence limits were calculated based on the Litchfield and Wilcoxon method (Litchfield, J.T.; Wilcoxon, F. J. Pharmacol. Exp. Ther. 1949, 96, 99-113). To perform a statistical evaluation of the results in the scPTZ test, one-way ANOVA variance analysis followed by Dunnett's post hoc test were used. The values were considered statistically significant if p<0.05.

[2] = tested on: psychomotor seizures induced by a 32 mA, 6 Hz stimulus in mice; assay: Psychomotor seizure test 6 Hz (32 mA); assay type: in vivo
Procedure: as §1
(§3) In the psychomotor seizure test (6 Hz test), seizures were induced by a 32 mA and/or 44 mA electrical stimulus of a frequency of 6 pulses per second. An electrical pulse was generated using an electric shock generator (ECT Unit 57800; Ugo Basile, Gemonio, Italy) and delivered to the animal using corneal electrodes. Before starting the test, the eye surface was gently moistened with a solution of local anesthetic (1% lidocaine solution). The study was conducted 30 minutes/2 hours after intraperitoneal administration of the compounds at various doses. An electrical stimulus was delivered continuously for a period of 3 seconds, followed by observation of the animal for a period of 10 seconds. During the experiment, the number of animals with an episode of psychomotor convulsions was counted: motor inhibition, staggering, maintaining a sitting posture, forelimb clonus, twitching of the vibrissae and Straub-tail were observed (Leclercq, K.; Kaminski, R.M. Epilepsia 2015, 56, 310-318).
as §2

[3] = tested on: psychomotor seizures induced by a 44 mA, 6 Hz stimulus in mice; assay: Psychomotor seizure test 6 Hz (44 mA); assay type: in vivo; settings: in mg/kg
Procedure: as §1, §3, §2

[4] = tested on: pentylenetetrazole-induced clonic seizures in mice; assay: Subcutaneous pentylenetetrazole (scPTZ) seizure test; assay type: in vivo; settings: for ED50 scPTZ: mice, in mg/kg; for latency of the first episode of clonic seizures in the scPTZ test: control 740+212.5 seconds
Procedure: as §1
In the subsutaneous pentylenetetrazole seizure test, the animals received pentylenetetrazole at a dose of 100 mg/kg. Test compounds were administered 30 minutes and 2 hours before the experiment. After PTZ administration, the animals were placed individually in transparent cages and observed for a period of 30 minutes/2 hours. During the experiment, the number of animals with a clonic seizure lasting at least 3 s with loss of balance was counted. In addition, the latency of the onset of the first clonic seizure was measured and compared with the control group (Ferreri, G. et al. Pharmacol. Biochem. Behav. 2004, 77, 859-894; Łączkowski, K. et. al. J. Enzym Inhib. Med. Chem. 2016, 31, 1576-1582).
as §2

[5] = tested on: motor coordination of mice; assay: Rotarod test (motor coordination, acute neurotoxicity); assay type: in vivo; settings: in mg/kg
Procedure: as §1
The effect of the tested compounds on motor coordination was assessed in the rotarod test (May Commat, RR 0711 RotaRod, Turkey). The day before the actual experiment, the mice were trained on a rod rotating at 10 revolutions per minute (rpm) for 3 minutes. The experiment was performed 30 minutes and 2 hours after administration of the compounds. The motor coordination of the animals was tested at the speed of the rotating rod: 10 rpm for 60 seconds. The measure of neurotoxicity was the inability to stay on the rod for a given time (Łuszczki, J.J. et al. Eur. Neuropsychopharmacol. 2005, 6, 609-616).
as §2

[6] = tested on: mouse liver microsomes (MLMs); assay: In vitro metabolic stability, mouse liver microsomes; assay type: in vitro ADME; settings: 120-minute incubation with MLMs, NADPH
Procedure: (§4) Metabolic stability assessment was performed using mouse (MLMs) and human (HLMs) liver microsomes purchased from Sigma-Aldrich (St. Louis, MO, USA). The detailed methodology is described in the literature (Kamiński et al. J. Med. Chem. 2015, 58, 5274-5286). The reaction mixture was prepared by mixing […] of the tested compound with mouse or human microsomes (1 mg/mL) in 10 mM TRIS-HCl buffer. The reaction mixture was pre-incubated for 5 min at 37° C. After the initial incubation, 50 μL of the NADPH Regeneration System (Promega, Madison, WI, USA) was added to initiate the reaction. The reaction mixture was then incubated for 120 min at 37° C. 200 μL of cold extra pure methanol was added to complete the reaction. The mixture was then centrifuged at 14,000 g for 15 min and the supernatants were analyzed using a Waters ACQUITY™ TQD LC/MS system with a TQ detector (Waters, Milford, USA). Each experiment was performed in triplicate.

[7] = tested on: human liver microsomes (HLMs); assay: In vitro metabolic stability, human liver microsomes; assay type: in vitro ADME; settings: 120-minute incubation with HLMs
Procedure: as §4

[8] = tested on: motor coordination of mice; settings: in vivo; cited from earlier work
[9] = tested on: spontaneous locomotor activity of mice; settings: mouse, in vivo; cited from earlier work
[10] = tested on: human liver microsomes (HLMs); settings: cited from earlier work
[11] = biological target: CYP3A4 (Homo sapiens, UniProt P08684); settings: cited from earlier work
Sequence of CYP3A4 (P08684 whole entry): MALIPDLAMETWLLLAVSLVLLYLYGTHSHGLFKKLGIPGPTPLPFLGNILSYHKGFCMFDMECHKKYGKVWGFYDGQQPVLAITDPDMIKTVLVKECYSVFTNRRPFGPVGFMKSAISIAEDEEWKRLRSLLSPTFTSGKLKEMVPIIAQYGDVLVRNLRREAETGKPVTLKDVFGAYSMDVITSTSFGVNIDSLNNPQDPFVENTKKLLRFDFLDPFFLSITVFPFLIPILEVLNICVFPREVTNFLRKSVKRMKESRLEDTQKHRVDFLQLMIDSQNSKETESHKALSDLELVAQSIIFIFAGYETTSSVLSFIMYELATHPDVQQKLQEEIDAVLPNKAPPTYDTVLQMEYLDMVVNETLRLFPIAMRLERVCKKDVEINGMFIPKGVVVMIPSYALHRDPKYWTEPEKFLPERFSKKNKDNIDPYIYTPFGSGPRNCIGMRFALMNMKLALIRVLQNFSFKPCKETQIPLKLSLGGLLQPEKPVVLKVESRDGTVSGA

[12] = tested on: CYP2D9; settings: cited from earlier work
[13] = mouse, in vivo, po, 40 mg/kg
Procedure: The animals were housed at a temperature of 22-24° C., humidity of 50% (+/−10%), in a room providing 15 air changes per hour, with 12:12 hours light-dark cycle. In addition, they had constant access to food and water. […] Blood was allowed to clot at room temperature for 20 min, then centrifuged for 5 min, 10,000×g (Eppendorf miniSpin centrifuge, Germany) to obtain serum. The obtained biological material was stored at −70° C. until analysis.
Concentrations of the tested compounds in murine serum and brain homogenates were determined by high-performance liquid chromatography-tandem mass spectrometry (HPLC-MS/MS). Analyzes were performed on a Sciex QTRAP 4500 triple quad mass spectrometer coupled to an Exion LC AC HPLC (Danaher Corporation, USA). The chromatographic separation was carried out on a Hypersil Gold™ C18 column (3×50 mm, 5 μm, Thermo Scientific, USA), using a mixture of acetonitrile and water with 0.1% formic acid as the mobile phase. Analyzes were performed at 40° C. and the gradient shown in Table 7 was used to obtain optimal retention time. Valsartan was used as an internal standard. Positive ionization mode (ESI+) was used for maximum sensitivity. […]
Non-compartmental analysis was used to estimate the pharmacokinetic parameters. Maximum concentration (Cmax) and time necessary to reach maximum blood concentration-tmax were evaluated directly from the concentration-time plot.

[14] = tested on: psychomotor seizures induced by a 32 mA, 6 Hz stimulus in mice; settings: 0.5 h, i.p.; own data disclosed in Abram et al. Bioorg. Chem. 2021; in mg/kg; cited from earlier work
[15] = tested on: pentylenetetrazole-induced clonic seizures in mice; settings: 0.5 h, i.p.; own data disclosed in Abram et al. Bioorg. Chem. 2021; in mg/kg; cited from earlier work
[16] = 0.5 h after i.p. administration
[17] = 2.0 h after i.p. administration

| SMILES | ED50 MES [1, 16] [mg/kg] | ED50 MES [1, 17] [mg/kg] | ED50 6 Hz (32 mA) [2, 16] [mg/kg] | ED50 6 Hz (32 mA) [2, 17] [mg/kg] | ED50 6 Hz (44 mA) [3, 16] | ED50 6 Hz (44 mA) [3, 17] | TD50 Rotarod [5, 16] | TD50 Rotarod [5, 17] | metabolic stability [7] | effect on mouse motor coordination in the rotarod test [8] | sedative effect in spontaneous locomotor activity test on mice [9] | metabolic stability on human microsomes [10] | interaction with CYP3A4 isoform of cytochrome P-450 [11] | interaction with CYP2D9 isoform of cytochrome P-450 [12] | further results |
| --- | --- | --- | --- | --- | --- | --- | --- | --- | --- | --- | --- | --- | --- | --- | --- |
| C[C@H](C(=O)NCc1ccccc1)N1C(=O)CCC1=O [Compound 1, reference compound] | 57.7 | 95.3 | 16.8 | > 130 | 77.3 | >200 | 236.2 | >300 | high metabolic stability | minimal effect | no sedative effect | very high metabolic stability | no interaction | no interaction | ED50 scPTZ [4, 16]: 30.6; ED50 scPTZ [4, 17]: >130; latency of the first episode of clonic seizures in the scPTZ test ([4]; dose 40 mg/kg): 1568+150.9 seconds; latency of the first episode of clonic seizures in the scPTZ test ([4]; dose 60 mg/kg): 1467+210.8 seconds; metabolic stability (metabolites in UPLC chromatograms) [6]: no metabolites appeared |
| CC(C(=O)NCc1ccccc1F)N1C(=O)CCC1=O (stereo not drawn) [Compound 2, reference compound] | 23.6 | 73.3 | 16.7 | 38.1 | 78.3 | 86.8 | >100 | >300 | high metabolic stability | minimal effect | no sedative effect | very high metabolic stability | no interaction | no interaction | tmax [13]: 30 min |
| CCCC(CCC)C(=O)O [VPA, valproic acid] |  |  |  |  |  |  |  |  |  |  |  |  |  |  | ED50 6 Hz (32 mA) [14]: 130.6; ED50 scPTZ [15]: 239.4 |
